Earlier results in patent publication US9198430B2, “Anti-parasitic composition comprising a macrocyclic lactone and levamisole and method of treatment of parasitic infestation” (BAYER NEW ZEALAND LIMITED, priority 2011, dated 2015).
Like-named read-outs stand apart in the source and are kept apart here.

Details: unlabelled doramectin 0.2 mg/kg bodyweight

Residues of Doramectin, Fat (Day 21): 182 µg/kg
Residues of Doramectin, Injection (site) (Day 21): 1900 µg/kg
Residues of Doramectin, Kidney (Day 21): 11 µg/kg
Residues of Doramectin, Liver (Day 21): 107 µg/kg
Residues of Doramectin, Muscle (Day 21): <7 µg/kg
Residues of Doramectin, Fat (Day 28): 94 µg/kg
Residues of Doramectin, Injection (site) (Day 28): 380 µg/kg
Residues of Doramectin, Kidney (Day 28): 8.8 µg/kg
Residues of Doramectin, Liver (Day 28): 66 µg/kg
Residues of Doramectin, Muscle (Day 28): <4 µg/kg
Residues of Doramectin, Fat (Day 35): 57 µg/kg
Residues of Doramectin, Injection (site) (Day 35): 930 µg/kg
Residues of Doramectin, Kidney (Day 35): <4.5 µg/kg
Residues of Doramectin, Liver (Day 35): 29 µg/kg
Residues of Doramectin, Muscle (Day 35): <3 µg/kg
SMILES: CO[C@H]1C[C@H](O[C@H]2[C@H](C)O[C@@H](O[C@@H]3/C(C)=C/C[C@@H]4C[C@@H](C[C@]5(C=C[C@H](C)[C@@H](C6CCCCC6)O5)O4)OC(=O)[C@@H]4C=C(C)[C@@H](O)[C@H]5OC/C(=C\C=C\[C@@H]3C)[C@]54O)C[C@@H]2OC)O[C@@H](C)[C@@H]1O [doramectin, Doramectin]
